Data published in patent US8969080B2, “Remedy for the treatment of cardio-vascular diseases or disorders” (Max-Delbrueck-Centrum fuer Molekulare Medizin, priority 2007, dated 2015).

What was measured:
β-catenin = target: T1, β-catenin (Homo sapiens, UniProt P35222); experiment: co-immunoprecipitation of KLF15 and KLF15 mutants with β-catenin; assay type: binding; conditions: full length KLF15
T1 sequence (P35222 1-781): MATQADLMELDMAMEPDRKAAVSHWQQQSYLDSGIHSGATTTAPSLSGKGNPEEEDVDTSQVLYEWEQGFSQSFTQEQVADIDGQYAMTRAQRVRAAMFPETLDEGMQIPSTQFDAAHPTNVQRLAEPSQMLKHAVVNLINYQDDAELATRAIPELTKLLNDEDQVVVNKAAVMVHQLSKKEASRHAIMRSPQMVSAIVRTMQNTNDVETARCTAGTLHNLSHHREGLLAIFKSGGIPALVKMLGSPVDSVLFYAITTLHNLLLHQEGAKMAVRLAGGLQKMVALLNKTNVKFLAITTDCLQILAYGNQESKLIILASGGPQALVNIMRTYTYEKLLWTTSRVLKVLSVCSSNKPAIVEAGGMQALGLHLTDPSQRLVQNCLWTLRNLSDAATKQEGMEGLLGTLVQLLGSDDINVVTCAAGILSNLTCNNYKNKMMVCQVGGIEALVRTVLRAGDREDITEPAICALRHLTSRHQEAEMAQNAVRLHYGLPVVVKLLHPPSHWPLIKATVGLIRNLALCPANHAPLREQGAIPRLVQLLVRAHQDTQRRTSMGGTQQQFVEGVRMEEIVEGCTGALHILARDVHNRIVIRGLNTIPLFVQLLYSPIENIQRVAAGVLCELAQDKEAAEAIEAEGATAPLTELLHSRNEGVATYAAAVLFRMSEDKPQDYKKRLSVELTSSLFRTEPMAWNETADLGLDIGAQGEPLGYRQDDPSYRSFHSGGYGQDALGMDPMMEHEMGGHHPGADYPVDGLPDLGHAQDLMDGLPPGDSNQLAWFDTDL
Method: (§1) The transcription factor Krüppel-like factor (KLF) 15 inhibits β-catenin dependent transcription in isolated cardiomyocytes through a direct interaction of its C-terminal end as shown by topflash reporter gene assay and immunoprecipitation assays (FIG. 9 A). Isolated neonatal rat cardiomyocytes were used as a model system to analyze factors inhibiting β-catenin dependent gene regulation. β-catenin dependent transcription was measured by reporter gene assay. […] Concerning the molecular mechanisms, KLF15 mutants were analyzed concerning their direct protein interaction to β-catenin employing immunoprecipitation analysis (FIG. 9 B). The interacting domain was mapped to the N-terminus between amino acids 1 and 45 (FIG. 9 B), where as the C-terminus was also required for the transcriptional repressive function.
(§2) Inhibition of β-catenin-dependent gene transcription by KLF15. (A) Reporter gene assay in isolated neonatal cardiomyocytes showing activation of the topflash reporter gene by stabilized β-catenin (ΔN-catenin; dN). A dose-dependent inhibition is observed by co-transfection of KLF15.

[1] = test system: β-catenin dependent transcription; experiment: topflash reporter gene assay in isolated neonatal rat cardiomyocytes; assay type: cell-based; conditions: co-transfection of KLF15; reporter activated by stabilized β-catenin (ΔN-catenin)
Method: as §1, §2

mice = experiment: AngII infusion by minipump in control, β-catenin depleted and β-catenin stabilized mice; assay type: in vivo, mouse
Method: After 12 days' AngII infusion at pressure doses (1.4 μg Kg^−1 min^−1), control animals developed hypertrophy as judged by echocardiography, gene regulation, in vivo cross sectional area, and heart/body weight ratio as described before (FIG. 4). From the M-mode echocardiography imaging, a thickened inter-ventricular septum and LV posterior wall after AngII was identified in control animals (FIG. 4A). […] LV wall thickening was identical in β-catenin heart-depleted animals and control littermates after AngII (data not shown). […] Moreover, AngII increased gene expression of several hypertrophy gene markers in both control and b-catenin heart-depleted animals with the exception of β-myosin heavy chain (FIG. 4 C). A lack of β-MHC upregulation in response to stress stimuli might be indicative of adaptive cardiac remodeling preserving LV-function as described before (van Rooij E et al., Circ Res. 2004; 94:18e-26).
The effects of 12 days' AngII infusion in mice with cardiac stabilized β-catenin (β-cat^Δex3) were opposite in kind to those of mice with β-catenin heart-depletion. […] ANP (β-cat^Δex3 0.4±0.15; β-cat^Δex3+AngII 1.03±0.15; p<0.01) and BNP (β-cat^Δex3 0.43±0.24; β-cat^Δex3+AngII 1.4±0.27; p<0.01) expression was induced by AngII but final values were generally lower than in control mice (ANP: CT+AngII 2.3±0.8; BNP: CT+AngII 2.6±0.6).
As expected, fractional shortening increased in control mice after AngII treatment (31.1±1.6% to 36.2±1.6%). However, β-catenin heart-stabilization led to reduced fractional shortening after AngII infusion (34.7±2.9% to 22.4±4.5%, p<0.05). These absolute values in animals aged 10 to 14 weeks are identical to a serial analysis of the age-dependant changes employing the same high-resolution echo techniques as used for these studies. […] These absolute values are similar to other reports, i.e. rates of apoptotic cardiomyocytes after trans-aortic constriction. Moreover, no significant differences concerning fibrosis occurring focally throughout the LV wall was observed when both transgenic models were to their respective controls.
Representative examples of M-mode echocardiograms (not shown), quantification of echocardiographic parameters and heart/body weight from control and β-cat^Δex3-6 mice with and without AngII infusion are shown (n≧6 for each group) (B) Myocyte cross-sectional area increases in both control and β-catenin depleted β-cat^Δex3-6 mice as measured by WGA-FITC staining of cardiac tissue sections and quantification from control or β-cat^Δex3-6 mice with AngII infusion (data not shown). At least 500 cells were measured for each animal, n≧4 mice per group. (C) Significant upregulation of ANP, BNP and α-sarcomeric actin normalized to GAPDH after AngII in control and β-catenin depleted β-cat^Δex3-6 mice. Quantification by real-time PCR of whole heart RNA samples from control (white) or β-cat^Δex3-6 (grey) mice without (open bars) and with (shaded bars) AngII infusion. *=P<0.05, **=P<0.01, ***=P<0.001.
(A) Attenuation of cardiac hypertrophy after AngII in β-catenin stabilized mice is accompanied by significant deterioration of systolic function as measured by fractional shortening (right bar graph). Representative examples of M-mode echocardiograms and quantification from control or β-cat^Δex3 mice with and without AngII infusion. Quantification of echocardiographic wall size and fractional shortening from control or β-cat^Δex3 mice with and without AngII infusion. *=P<0.05, **=P<0.01. (B) Increase of myocyte cross-sectional area after AngII is attenuated in β-catenin stabilized β-cat^Δex3 mice (data not shown). At least 400 cells counted per animal, mice per group. ***=P<0.001. (C) Rates of TUNEL/α-sarcomeric actin/DAPI-positive cardiomyocytes after AngII infusion decrease after β-catenin stabilization in β-cat^Δex3. In addition to the TUNEL-assay, slides were co-stained with α-sarcomeric actin and DAPI in control mice and β-cat^Δex3 mice before and after AngII stimulation (data not shown).

Substance | direct protein interaction to β-catenin (immunoprecipitation) (β-catenin) | topflash reporter gene activation [1] | cardiomyocyte size following AngII treatment (mice; CT animals of the β-catenin stabilization model) | TUNEL-positive cells after AngII (mice; CT of the β-catenin depletion model, baseline 0.004±0.004) [%] | ANP expression (mice; CT+AngII) | BNP expression (mice; CT+AngII) | TUNEL/α-sarcomeric actin/DAPI-positive cells after AngII (mice; CT+AngII, β-catenin stabilization model) [%] | Axin2 levels (whole heart RNA) (mice; both control and β-catenin stabilized mice) | cellular cross sectional area (mice; control mice of the β-catenin depletion model, after 12 days' AngII infusion) | fractional shortening after AngII (mice; control mice, baseline 31.1±1.6%) [%] | Tbx5 gene expression (mice; control mice, effect lost in β-catenin stabilized mice) | ANP expression (mice; β-cat^Δex3+AngII, baseline 0.4±0.15) | BNP expression (mice; β-cat^Δex3+AngII, baseline 0.43±0.24) | TUNEL-positive cells after AngII (mice; β-cat^Δex3-6 mice, baseline 0.112±0.044%) [%] | cardiomyocyte size following AngII treatment (mice; β-cat^Δex3 mice) | TUNEL/α-sarcomeric actin/DAPI-positive cells after AngII (mice; β-cat^Δex3 mice, baseline 0.058±0.027%) [%] | cellular cross sectional area (mice; β-catenin depleted mice (β-cat^Δex3-6), after 12 days' AngII infusion 1.4 μg Kg^−1 min^−1) | fractional shortening after AngII (mice; β-catenin heart-stabilized mice, baseline 34.7±2.9%) [%]
KLF15: transcription factor Krüppel-like factor 15, co-transfected; inhibits β-catenin dependent transcription | interaction | inhibit topflash reporter gene activation dose dependendly |  |  |  |  |  |  |  |  |  |  |  |  |  |  |  | 
Angiotensin II (DRVYIHPF; Angiotensin-2; UniProt P01019 25-32, looked up) [AngII, hypertrophic stress stimulus infused by minipump] |  |  | 9.07×10^7±0.14×10^7 | 0.09±0.02 | 2.3±0.8 | 2.6±0.6 | 0.297±0.025 | increased | 12.3×10^7±0.19×10^7 a.u. | 36.2±1.6 | significantly downregulated | 1.03±0.15 | 1.4±0.27 | 0.2±0.13 | 8.14×10^7±0.14×10^7 | 0.120±0.049 | 12.1×10^7±0.24×10^7 a.u. | 22.4±4.5
